# How the values were obtained:
# Format in all cases: in vivo, chicken
# [1] = system: Cobb500 fast-feathering male broilers; assay: Grow out of offspring, performance till slaughter age (Example 3)
# Ross 308 breeders = assay: Broiler breeder performance, weeks 30 through 39 of age (Example 4); conditions: breeder diet
# Excerpt: All breeders received the same standard control diet during the pre-experimental period (19-30 weeks of age). […] In total there were 24 floor pens with 30 breeder females and 3 males (after allocation). The experimental period lasted 9 weeks; the breeders received a lay phase diet during the entire experimental period. Feed and water were restricted. Feed amount depended on body weight development. Water was provided for two hours a day, crops were checked regularly to ensure the correct amount of water was provided. [table]
# Ross 308 male broilers = assay: Grow out of offspring (Example 6); conditions: 160 versus 80 ppm in breeder diet
smiles,measurement,setting,value
"Cc1c(C)c2c(c(C)c1O)CCC(C)(CCCC(C)CCCC(C)CCCC(C)C)O2 (racemic) [Vitamin E, DL-α-tocopherol]",start weight of the chickens,"[1]; after placement in cages, day 0",40.9 g
same,F:G corrected for BW,"[1]; corrected to 2,181 gram body weight at 35 days of age",1.627
same,ADFI 0-3 d,[1]; offspring,10.1 g
same,ADFI 0-14 d,[1]; offspring,37.1 g
same,ADFI 0-28 d,[1]; offspring,82.1 g
same,ADFI 0-35 d,[1]; offspring,101.7 g
same,ADFI 3-14 d,[1]; offspring,44.5 g
same,ADFI 14-35,[1]; offspring,144.8 g
same,ADFI 14-28 d,[1]; offspring,127.0 g
same,ADFI 28-35 d,[1]; offspring,180.3 g
same,ADG 0-3 d,[1]; offspring,9.5 g
same,ADG 0-14 d,[1]; offspring,29.3 g
same,ADG 0-28 d,[1]; offspring,54.4 g
same,ADG 0-35 d,[1]; offspring,62.2 g
same,ADG 3-14 d,[1]; offspring,34.7 g
same,ADG 14-35,[1]; offspring,84.2 g
same,ADG 14-28 d,[1]; offspring,79.6 g
same,ADG 28-35 d,[1]; offspring,93.6 g
same,BW 0 d,[1]; offspring,40.9 g
same,BW 3 d,[1]; offspring,69.4 g
same,BW 14 d,[1]; offspring,451 g
same,BW 35 d,[1]; offspring,2219 g
same,F:G 0-14 d,[1]; offspring,1.268
same,F:G 0-28 d,[1]; offspring,1.509
same,F:G 0-35 d,[1]; offspring,1.635
same,F:G 3-14 d,[1]; offspring,1.283
same,F:G 14-28 d,[1]; offspring,1.598
same,F:G 14-35 d,[1]; offspring,1.720
same,F:G 28-35 d,[1]; offspring,1.929
same,EPI excl,"[1]; offspring, 35 d",388
same,"EPI, excl mortality","[1]; offspring, 35 d",369
same,Mortality,"[1]; offspring, breeder diet 80 ppm vitamin E or 40 ppm vitamin E+40 ppm PROVIOX 50",4.6%
same,F:G 0-3 d,"[1]; offspring, kg feed intake:kg gain",1.088
same,Average daily gain 30-34 wk,Ross 308 breeders; vitamin E equivalence 80 ppm,5.36 g
same,Average daily gain 30-39 wk,Ross 308 breeders; vitamin E equivalence 80 ppm,5.79 g
same,Average daily gain 34-39 wk,Ross 308 breeders; vitamin E equivalence 80 ppm,5.96 g
same,Bodyweight 30 wks,Ross 308 breeders; vitamin E equivalence 80 ppm,3.51 kg
same,Bodyweight 39 wks,Ross 308 breeders; vitamin E equivalence 80 ppm,3.88 kg
same,Egg mass 30-34 wks,Ross 308 breeders; vitamin E equivalence 80 ppm,52.4 g/h/d
same,Egg mass 30-39 wks,Ross 308 breeders; vitamin E equivalence 80 ppm,51.6 g/h/d
same,Egg mass 34-39 wks,Ross 308 breeders; vitamin E equivalence 80 ppm,50.9 g/h/d
same,Egg weight 30-34 wks,Ross 308 breeders; vitamin E equivalence 80 ppm,60.1 g
same,Egg weight 30-39 wks,Ross 308 breeders; vitamin E equivalence 80 ppm,61.2 g
same,Egg weight 34-39 wks,Ross 308 breeders; vitamin E equivalence 80 ppm,62.4 g
same,First Class Eggs 30-34 wks,Ross 308 breeders; vitamin E equivalence 80 ppm,80.2%
same,First Class Eggs 30-39 wks,Ross 308 breeders; vitamin E equivalence 80 ppm,77.0%
same,First Class Eggs 34-39 wks,Ross 308 breeders; vitamin E equivalence 80 ppm,73.8%
same,Laying in percentage 30-34 wks,Ross 308 breeders; vitamin E equivalence 80 ppm,87.1%
same,Laying in percentage 30-39 wks,Ross 308 breeders; vitamin E equivalence 80 ppm,84.3%
same,Laying in percentage 34-39 wks,Ross 308 breeders; vitamin E equivalence 80 ppm,81.5%
same,Second Choice Eggs: Broken Eggs 30-34 wks,Ross 308 breeders; vitamin E equivalence 80 ppm,1.2%
same,Second Choice Eggs: Broken Eggs 30-39 wks,Ross 308 breeders; vitamin E equivalence 80 ppm,1.2%
same,Second Choice Eggs: Broken Eggs 34-39 wks,Ross 308 breeders; vitamin E equivalence 80 ppm,1.2%
same,Second Choice Eggs: Dirty Eggs 30-34 wks,Ross 308 breeders; vitamin E equivalence 80 ppm,1.4%
same,Second Choice Eggs: Dirty Eggs 30-39 wks,Ross 308 breeders; vitamin E equivalence 80 ppm,1.7%
same,Second Choice Eggs: Dirty Eggs 34-39 wks,Ross 308 breeders; vitamin E equivalence 80 ppm,1.9%
same,Second Choice Eggs: Double yolk Eggs 30-34 wks,Ross 308 breeders; vitamin E equivalence 80 ppm,1.3%
same,Second Choice Eggs: Double yolk Eggs 30-39 wks,Ross 308 breeders; vitamin E equivalence 80 ppm,0.9%
same,Second Choice Eggs: Double yolk Eggs 34-39 wks,Ross 308 breeders; vitamin E equivalence 80 ppm,0.4%
same,"Second Choice Eggs: Floor eggs, 30-34 wks",Ross 308 breeders; vitamin E equivalence 80 ppm,2.3%
same,"Second Choice Eggs: Floor eggs, 30-39 wks",Ross 308 breeders; vitamin E equivalence 80 ppm,2.8%
same,"Second Choice Eggs: Floor eggs, 34-39 wks",Ross 308 breeders; vitamin E equivalence 80 ppm,3.4%
same,Second Choice Eggs: Remainder 30-34 wks,Ross 308 breeders; vitamin E equivalence 80 ppm,0.5%
same,Second Choice Eggs: Remainder 30-39 wks,Ross 308 breeders; vitamin E equivalence 80 ppm,0.6%
same,Second Choice Eggs: Remainder 34-39 wks,Ross 308 breeders; vitamin E equivalence 80 ppm,0.8%
same,Second Choice Eggs: Shell less Eggs 30-34 wks,Ross 308 breeders; vitamin E equivalence 80 ppm,0.2%
same,Second Choice Eggs: Shell less Eggs 30-39 wks,Ross 308 breeders; vitamin E equivalence 80 ppm,0.1%
same,Second Choice Eggs: Shell less Eggs 34-39 wks,Ross 308 breeders; vitamin E equivalence 80 ppm,0.0%
same,Average daily gain 30-34 wk,Ross 308 breeders; vitamin E equivalence 160 ppm,5.65 g
same,Average daily gain 30-39 wk,Ross 308 breeders; vitamin E equivalence 160 ppm,5.60 g
same,Average daily gain 34-39 wk,Ross 308 breeders; vitamin E equivalence 160 ppm,5.40 g
same,Bodyweight 30 wks,Ross 308 breeders; vitamin E equivalence 160 ppm,3.48 kg
same,Bodyweight 39 wks,Ross 308 breeders; vitamin E equivalence 160 ppm,3.83 kg
same,Egg mass 30-34 wks,Ross 308 breeders; vitamin E equivalence 160 ppm,52.5 g/h/d
same,Egg mass 30-39 wks,Ross 308 breeders; vitamin E equivalence 160 ppm,52.4 g/h/d
same,Egg mass 34-39 wks,Ross 308 breeders; vitamin E equivalence 160 ppm,52.2 g/h/d
same,Egg weight 30-34 wks,Ross 308 breeders; vitamin E equivalence 160 ppm,60.3 g
same,Egg weight 30-39 wks,Ross 308 breeders; vitamin E equivalence 160 ppm,61.6 g
same,Egg weight 34-39 wks,Ross 308 breeders; vitamin E equivalence 160 ppm,62.9 g
same,First Class Eggs 30-34 wks,Ross 308 breeders; vitamin E equivalence 160 ppm,78.6%
same,First Class Eggs 30-39 wks,Ross 308 breeders; vitamin E equivalence 160 ppm,76.5%
same,First Class Eggs 34-39 wks,Ross 308 breeders; vitamin E equivalence 160 ppm,74.4%
same,Laying in percentage 30-34 wks,Ross 308 breeders; vitamin E equivalence 160 ppm,87.0%
same,Laying in percentage 30-39 wks,Ross 308 breeders; vitamin E equivalence 160 ppm,85.0%
same,Laying in percentage 34-39 wks,Ross 308 breeders; vitamin E equivalence 160 ppm,83.0%
same,Second Choice Eggs: Broken Eggs 30-34 wks,Ross 308 breeders; vitamin E equivalence 160 ppm,1.2%
same,Second Choice Eggs: Broken Eggs 30-39 wks,Ross 308 breeders; vitamin E equivalence 160 ppm,1.3%
same,Second Choice Eggs: Broken Eggs 34-39 wks,Ross 308 breeders; vitamin E equivalence 160 ppm,1.5%
same,Second Choice Eggs: Dirty Eggs 30-34 wks,Ross 308 breeders; vitamin E equivalence 160 ppm,1.8%
same,Second Choice Eggs: Dirty Eggs 30-39 wks,Ross 308 breeders; vitamin E equivalence 160 ppm,1.8%
same,Second Choice Eggs: Dirty Eggs 34-39 wks,Ross 308 breeders; vitamin E equivalence 160 ppm,1.7%
same,Second Choice Eggs: Double yolk Eggs 30-34 wks,Ross 308 breeders; vitamin E equivalence 160 ppm,1.1%
same,Second Choice Eggs: Double yolk Eggs 30-39 wks,Ross 308 breeders; vitamin E equivalence 160 ppm,0.8%
same,Second Choice Eggs: Double yolk Eggs 34-39 wks,Ross 308 breeders; vitamin E equivalence 160 ppm,0.5%
same,"Second Choice Eggs: Floor eggs, 30-34 wks",Ross 308 breeders; vitamin E equivalence 160 ppm,3.3%
same,"Second Choice Eggs: Floor eggs, 30-39 wks",Ross 308 breeders; vitamin E equivalence 160 ppm,3.7%
same,"Second Choice Eggs: Floor eggs, 34-39 wks",Ross 308 breeders; vitamin E equivalence 160 ppm,4.1%
same,Second Choice Eggs: Remainder 30-34 wks,Ross 308 breeders; vitamin E equivalence 160 ppm,0.8%
same,Second Choice Eggs: Remainder 30-39 wks,Ross 308 breeders; vitamin E equivalence 160 ppm,0.7%
same,Second Choice Eggs: Remainder 34-39 wks,Ross 308 breeders; vitamin E equivalence 160 ppm,0.6%
same,Second Choice Eggs: Shell less Eggs 30-34 wks,Ross 308 breeders; vitamin E equivalence 160 ppm,0.3%
same,Second Choice Eggs: Shell less Eggs 30-39 wks,Ross 308 breeders; vitamin E equivalence 160 ppm,0.2%
same,Second Choice Eggs: Shell less Eggs 34-39 wks,Ross 308 breeders; vitamin E equivalence 160 ppm,0.2%
same,"feed to gain corrected for final bodyweight, worse for high versus low vitamin E treatment",Ross 308 male broilers,2.6%
same,"overall feed to gain, worse for high versus low vitamin E treatment",Ross 308 male broilers,1.4%
